From ChEMBL document CHEMBL1157185, “Design and synthesis of benzofuranic derivatives as new ligands at the melatonin-binding site MT3” (Bioorg Med Chem, 2008)

Experiments:
[1] = Inhibition of MT3 melatonin binding site from hamster brain membrane; parameters: species or system Cricetinae
[2] = molecular target: Melatonin receptor type 1A (Homo sapiens, UniProt P48039); assay: Displacement of 2-[125I]iodomelatonin from human MT1 receptor expressed in HEK293 cells; type: cell-based
[3] = molecular target: T1, Melatonin receptor type 1B (Homo sapiens, UniProt P49286); assay: Displacement of 2-[125I]iodomelatonin from human MT2 receptor expressed in HEK293 cells; type: cell-based
T1 sequence (P49286 whole entry): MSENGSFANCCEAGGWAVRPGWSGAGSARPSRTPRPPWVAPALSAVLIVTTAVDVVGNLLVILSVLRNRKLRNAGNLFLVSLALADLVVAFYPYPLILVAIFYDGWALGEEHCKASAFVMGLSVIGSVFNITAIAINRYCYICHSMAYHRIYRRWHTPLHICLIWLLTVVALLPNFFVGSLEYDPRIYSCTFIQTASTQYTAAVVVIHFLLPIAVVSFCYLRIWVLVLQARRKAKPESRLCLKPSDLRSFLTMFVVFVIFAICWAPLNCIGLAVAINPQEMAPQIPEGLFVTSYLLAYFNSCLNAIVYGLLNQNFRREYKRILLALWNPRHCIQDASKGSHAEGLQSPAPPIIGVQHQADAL

[4] = Selectivity ratio, IC50 for human MT2 melatonin receptor to IC50 for hamster MT3 melatonin binding site
[5] = Selectivity ratio, IC50 for human MT1 melatonin receptor to IC50 for hamster MT3 melatonin binding site

Sequence of Melatonin receptor type 1A (P48039 whole entry): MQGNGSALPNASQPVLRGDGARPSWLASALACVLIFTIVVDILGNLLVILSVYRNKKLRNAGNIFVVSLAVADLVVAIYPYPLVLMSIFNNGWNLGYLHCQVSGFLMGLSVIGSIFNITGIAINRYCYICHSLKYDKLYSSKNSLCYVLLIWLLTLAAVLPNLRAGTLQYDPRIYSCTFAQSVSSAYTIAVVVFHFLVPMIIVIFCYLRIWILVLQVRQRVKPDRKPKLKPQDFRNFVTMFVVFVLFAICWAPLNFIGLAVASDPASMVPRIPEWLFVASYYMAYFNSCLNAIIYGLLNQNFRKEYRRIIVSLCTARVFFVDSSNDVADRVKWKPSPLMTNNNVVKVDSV

In the case of `COc1cc2c(cc1OC)-c1c(c3cc(O)ccc3n1C)C2=O`, the Ki [1] is reported as 0.19 nM.
With `COc1cc2nc(N3CCN(C(=O)c4ccco4)CC3)nc(N)c2cc1OC` [PRAZOSIN] the IC50 [1] was 7.8 nM.
Work on `COC(=O)Nc1ccc2occ(CCNC(=O)C3CC3)c2c1` yielded an IC50 [2] of 8180 nM, an IC50 [3] of 5900 nM and an IC50 [1] of 24 nM. It also gave a Ratio IC50 [4] of 245 and a Ratio IC50 [5] of 340.
Molecule `COC(=O)Nc1ccc2[nH]cc(CCNC(C)=O)c2c1` has an IC50 [2] of 1000 nM and an IC50 [3] of 4000 nM.
Molecule `COC(=O)Nc1ccc2occ(CCNC(=O)C(C)C)c2c1` has an IC50 [2] of 5350 nM, an IC50 [3] of 4580 nM and an IC50 [1] of 23 nM. The Ratio IC50 [4] was 199 and the Ratio IC50 [5] was 232.
For `COC(=O)c1ccc2occ(CCNC(C)=O)c2c1`, the IC50 [1] was 14 nM.
In the case of `CC(=O)NCCc1coc2ccc(C(N)=O)cc12`, the IC50 [2] is reported as > 10000 nM, the IC50 [3] is reported as 1000 nM and the IC50 [1] is reported as 82 nM. The Ratio IC50 [4] was 12 and the Ratio IC50 [5] was > 122.
In the case of `COC(=O)Nc1ccc2occ(CCNC(=O)c3ccco3)c2c1`, the IC50 [2] is reported as > 10000 nM, the IC50 [3] is reported as > 10000 nM and the IC50 [1] is reported as 56 nM. For the same molecule, the Ratio IC50 [4] was > 178 and the Ratio IC50 [5] was > 178.
For `COC(=O)Nc1ccc2occ(CCNC(C)=O)c2c1`, the IC50 [1] was 16 nM.
With `CNC(=O)c1ccc2occ(CCNC(=O)C3CC3)c2c1` the IC50 [2] was 1220 nM, the IC50 [3] was > 10000 nM and the IC50 [1] was 41 nM. For the same molecule, the Ratio IC50 [4] was > 244 and the Ratio IC50 [5] was > 29.
Work on `COc1ccc2c(c(CCNC(C)=O)c(I)n2C)c1[N+](=O)[O-]` yielded a Ki [1] of 0.3 nM.
With `CC(=O)NCCc1coc2ccc(NC(=O)C(F)(F)F)cc12` the IC50 [2] was > 10000 nM and the IC50 [3] was 2000 nM.
In the case of `COC(=O)c1ccc2occ(CCNC(=O)c3ccco3)c2c1`, the IC50 [2] is reported as > 10000 nM, the IC50 [3] is reported as > 10000 nM and the IC50 [1] is reported as 53 nM. The Ratio IC50 [4] was > 188 and the Ratio IC50 [5] was > 188.
With `COc1ccc2occ(CCNC(C)=O)c2c1` the IC50 [1] was 64 nM.
For `COC(=O)c1ccc2occ(CCNC(=O)C(C)C)c2c1`, the IC50 [1] was 65 nM.
In the case of `CNC(=O)c1ccc2occ(CCNC(=O)C3CCCC3)c2c1`, the IC50 [2] is reported as > 10000 nM and the IC50 [3] is reported as > 10000 nM.
`C=CCC(=O)NCCc1coc2ccc(NC(=O)OC)cc12` gave an IC50 [2] of 2690 nM, an IC50 [3] of 560 nM and an IC50 [1] of 11 nM. It also gave a Ratio IC50 [4] of 51 and a Ratio IC50 [5] of 244.
`COC(=O)c1ccc2occ(CCNC(=O)C3CCCC3)c2c1` gave an IC50 [2] of 3880 nM, an IC50 [3] of 389 nM and an IC50 [1] of 18 nM. It also gave a Ratio IC50 [4] of 21.6 and a Ratio IC50 [5] of 215.
In the case of `CNC(=O)c1ccc2occ(CCNC(C)=O)c2c1`, the IC50 [2] is reported as 189 nM, the IC50 [3] is reported as > 1000 nM and the IC50 [1] is reported as 12 nM. The Ratio IC50 [4] was > 83 and the Ratio IC50 [5] was 16.
`COC(=O)Nc1ccc2occ(CCNC(=O)C3CCCC3)c2c1` gave an IC50 [2] of 5320 nM and an IC50 [3] of 5320 nM.
For `NC(=O)c1ccc2occ(CCNC(=O)c3ccco3)c2c1`, the IC50 [2] was > 10000 nM, the IC50 [3] was > 10000 nM and the IC50 [1] was 67 nM. The Ratio IC50 [4] was > 149 and the Ratio IC50 [5] was > 149.
